{"source": "patent US20230017786A1", "about": "“DEXTR[…] A DISEASE-MODIFYING TREATMENT FOR NEUROPSYCHIATRIC DISORDERS AND DISEASES” (priority 2020, published 2023)", "key": {"[1]": {"molecular_target": "T1, human NMDA receptor GluN1-GluN2B (Homo sapiens, UniProt Q05586+Q13224)", "T1 construct": "expressed in transfected cells; host or cells: CHO", "T1 sequence (Q13224 27-1484, other chains not shown)": "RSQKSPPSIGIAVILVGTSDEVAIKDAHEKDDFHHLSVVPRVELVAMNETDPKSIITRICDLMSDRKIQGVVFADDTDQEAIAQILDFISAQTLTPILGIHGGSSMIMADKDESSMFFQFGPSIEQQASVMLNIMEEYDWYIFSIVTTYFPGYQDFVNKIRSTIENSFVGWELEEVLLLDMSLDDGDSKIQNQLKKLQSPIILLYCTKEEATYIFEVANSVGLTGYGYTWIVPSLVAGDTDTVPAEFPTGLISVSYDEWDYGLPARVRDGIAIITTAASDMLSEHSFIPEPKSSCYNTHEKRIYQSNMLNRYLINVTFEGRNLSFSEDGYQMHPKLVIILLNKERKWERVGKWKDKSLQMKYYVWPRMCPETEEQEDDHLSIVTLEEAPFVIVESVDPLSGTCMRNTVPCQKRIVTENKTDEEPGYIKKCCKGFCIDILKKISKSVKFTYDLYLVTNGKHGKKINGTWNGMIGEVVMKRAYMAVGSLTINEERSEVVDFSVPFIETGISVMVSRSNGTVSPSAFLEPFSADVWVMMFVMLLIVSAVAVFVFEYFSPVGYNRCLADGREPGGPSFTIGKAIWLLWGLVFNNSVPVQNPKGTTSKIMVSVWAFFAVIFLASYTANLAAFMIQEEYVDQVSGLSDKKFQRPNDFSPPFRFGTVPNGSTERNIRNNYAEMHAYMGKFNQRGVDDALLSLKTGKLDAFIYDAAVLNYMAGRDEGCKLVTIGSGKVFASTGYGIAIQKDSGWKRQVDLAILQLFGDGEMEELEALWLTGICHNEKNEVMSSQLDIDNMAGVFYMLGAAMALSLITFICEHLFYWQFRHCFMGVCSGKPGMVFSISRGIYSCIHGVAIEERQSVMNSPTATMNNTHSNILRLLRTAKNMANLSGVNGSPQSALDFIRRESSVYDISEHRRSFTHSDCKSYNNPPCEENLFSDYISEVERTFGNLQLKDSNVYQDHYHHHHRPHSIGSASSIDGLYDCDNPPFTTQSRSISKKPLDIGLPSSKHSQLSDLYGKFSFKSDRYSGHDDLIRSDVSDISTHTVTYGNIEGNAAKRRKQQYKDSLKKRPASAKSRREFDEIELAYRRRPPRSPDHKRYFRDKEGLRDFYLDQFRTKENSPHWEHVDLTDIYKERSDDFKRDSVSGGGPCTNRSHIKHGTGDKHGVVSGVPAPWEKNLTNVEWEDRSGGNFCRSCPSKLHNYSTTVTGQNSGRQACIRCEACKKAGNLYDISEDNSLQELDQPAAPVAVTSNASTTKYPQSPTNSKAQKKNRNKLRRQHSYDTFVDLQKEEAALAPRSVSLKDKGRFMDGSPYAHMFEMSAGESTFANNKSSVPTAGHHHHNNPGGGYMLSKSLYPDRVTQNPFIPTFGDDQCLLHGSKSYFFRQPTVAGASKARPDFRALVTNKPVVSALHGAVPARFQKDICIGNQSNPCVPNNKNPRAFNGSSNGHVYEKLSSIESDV", "assay": "cell-based", "assay_type": "cell-based"}, "[2]": {"molecular_target": "T2, recombinant human NMDAR GluN1 plus GluN2A (Homo sapiens, UniProt Q05586+Q12879)", "T2 construct": "expressed in transfected cells; host or cells: CHO", "T2 sequence (Q12879 23-1464, other chains not shown)": "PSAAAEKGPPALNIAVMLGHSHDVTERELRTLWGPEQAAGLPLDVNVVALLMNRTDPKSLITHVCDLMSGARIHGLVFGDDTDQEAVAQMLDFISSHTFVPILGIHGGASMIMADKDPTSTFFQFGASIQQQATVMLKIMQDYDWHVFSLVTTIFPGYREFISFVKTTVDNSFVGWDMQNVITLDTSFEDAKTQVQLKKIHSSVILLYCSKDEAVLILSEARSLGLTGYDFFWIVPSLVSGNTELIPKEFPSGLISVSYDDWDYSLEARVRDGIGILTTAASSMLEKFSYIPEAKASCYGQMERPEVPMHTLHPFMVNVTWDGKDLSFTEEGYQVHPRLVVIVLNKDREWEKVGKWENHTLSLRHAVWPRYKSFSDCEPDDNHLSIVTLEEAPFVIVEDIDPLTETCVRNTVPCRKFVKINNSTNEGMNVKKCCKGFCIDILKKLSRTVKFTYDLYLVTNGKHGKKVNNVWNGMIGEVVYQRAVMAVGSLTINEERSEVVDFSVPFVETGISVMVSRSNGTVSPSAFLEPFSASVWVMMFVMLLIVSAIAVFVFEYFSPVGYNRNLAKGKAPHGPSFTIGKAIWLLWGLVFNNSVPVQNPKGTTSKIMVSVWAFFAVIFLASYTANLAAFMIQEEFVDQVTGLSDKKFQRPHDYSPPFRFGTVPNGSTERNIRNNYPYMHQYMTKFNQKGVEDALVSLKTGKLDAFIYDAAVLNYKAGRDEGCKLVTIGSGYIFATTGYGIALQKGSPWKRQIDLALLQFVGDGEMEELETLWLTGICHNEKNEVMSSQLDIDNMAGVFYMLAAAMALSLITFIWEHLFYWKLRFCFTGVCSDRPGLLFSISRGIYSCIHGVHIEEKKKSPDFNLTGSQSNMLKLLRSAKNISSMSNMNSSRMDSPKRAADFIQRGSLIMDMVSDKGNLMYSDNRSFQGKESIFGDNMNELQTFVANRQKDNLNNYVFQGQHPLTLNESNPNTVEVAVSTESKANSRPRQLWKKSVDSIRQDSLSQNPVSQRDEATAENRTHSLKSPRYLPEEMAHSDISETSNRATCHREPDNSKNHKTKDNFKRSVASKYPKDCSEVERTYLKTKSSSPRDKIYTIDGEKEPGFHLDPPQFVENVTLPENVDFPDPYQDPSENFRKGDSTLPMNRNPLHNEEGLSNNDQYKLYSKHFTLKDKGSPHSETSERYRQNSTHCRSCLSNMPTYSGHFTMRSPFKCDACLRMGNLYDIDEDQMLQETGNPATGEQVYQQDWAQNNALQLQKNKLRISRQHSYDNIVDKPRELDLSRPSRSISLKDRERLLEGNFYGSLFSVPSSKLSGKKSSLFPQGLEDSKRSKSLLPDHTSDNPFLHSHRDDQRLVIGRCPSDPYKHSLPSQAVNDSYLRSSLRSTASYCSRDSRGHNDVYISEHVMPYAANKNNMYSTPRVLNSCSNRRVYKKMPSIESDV", "assay": "FLIPR calcium assay, gentamicin as PAM (Example 5 Part I), GluN2A cell line", "assay_type": "cell-based", "conditions": "10 μM test item; dextromethadone in presence and absence of 10 μM gentamicin", "description": "A FLIPR calcium assay was used to profile gentamicin using stable cell lines expressing diheteromeric recombinant human NMDARs, containing GluN1 plus one amongst GluN2A, GluN2B, GluN2C or GluN2D subunit."}, "[3]": {"molecular_target": "T1, human NMDA receptor GluN1-GluN2B", "assay": "FLIPR calcium assay, quinolinic acid, gentamicin, dextromethadone (Example 5 Part II), GluN1-GluN2B-CHO", "assay_type": "cell-based", "conditions": "10 μM glycine; for calcium response (mean±SEM): GluN2B, n=42"}, "[4]": {"molecular_target": "T3, human NMDA receptor GluN1-GluN2D (Homo sapiens, UniProt O15399+Q05586)", "T3 construct": "expressed in transfected cells; host or cells: CHO", "assay": "FLIPR calcium assay, quinolinic acid, gentamicin, dextromethadone (Example 5 Part II), GluN1-GluN2D-CHO", "assay_type": "cell-based", "conditions": "10 μM glycine; for calcium response (mean±SEM): GluN2D, n=42", "outline": "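CHO lines expressing diheteromeric human GluN1/GluN2A–D, loaded 1 h with Fluo-4, tested by FLIPR for intracellular calcium with 10 μM glycine present. Quinolinic acid, gentamicin and test items were run as concentration-response curves, alone or combined. EC50 obtained from a four-parameter Hill fit.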"}, "GluN1/GluN2D receptor": {"molecular_target": "T4, GluN1/GluN2D receptor (Homo sapiens, UniProt O15399+Q05586)", "T4 construct": "expressed in transfected cells; host or cells: CHO", "assay": "Automated patch clamp (QPatch HTX) in presence of 1 mM extracellular magnesium", "assay_type": "cell-based", "conditions": "10 μM dextromethadone, 1 mM Mg2+", "method": "Automated patch clamp experiments were performed in QPatch HTX (Sophion Bioscience A/S, Ballerup, Denmark) using CHO cells stably expressing recombinant diheteromeric human NMDAR. Cells were clamped at −80 mV holding potential in presence of 1 mM extracellular magnesium. Voltage protocol included a depolarizing 2 s step pulse to +60 mV, to check quality of the seal and cell NMDAR expression level, followed by a 2 s ramp back to holding potential."}, "5-HT2A receptor": {"molecular_target": "5-HT2A receptor (Homo sapiens, UniProt P28223)", "sequence (P28223 whole entry)": "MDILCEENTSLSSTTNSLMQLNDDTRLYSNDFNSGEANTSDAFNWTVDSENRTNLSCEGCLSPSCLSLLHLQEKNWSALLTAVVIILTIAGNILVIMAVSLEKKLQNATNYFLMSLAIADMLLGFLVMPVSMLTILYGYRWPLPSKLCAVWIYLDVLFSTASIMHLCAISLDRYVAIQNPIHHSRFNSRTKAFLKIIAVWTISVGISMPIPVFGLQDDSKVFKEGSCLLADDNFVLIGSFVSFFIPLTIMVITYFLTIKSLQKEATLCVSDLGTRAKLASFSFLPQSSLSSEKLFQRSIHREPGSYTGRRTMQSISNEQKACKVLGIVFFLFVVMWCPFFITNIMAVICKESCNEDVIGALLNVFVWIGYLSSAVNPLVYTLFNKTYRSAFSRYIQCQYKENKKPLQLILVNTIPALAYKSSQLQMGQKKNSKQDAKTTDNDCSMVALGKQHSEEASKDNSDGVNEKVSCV", "conditions": "agonist; Rickli et al., 2018; cited from earlier work"}, "5-HT2C receptor": {"molecular_target": "T5, 5-HT2C receptor (Homo sapiens, UniProt P28335)", "T5 sequence (P28335 33-458)": "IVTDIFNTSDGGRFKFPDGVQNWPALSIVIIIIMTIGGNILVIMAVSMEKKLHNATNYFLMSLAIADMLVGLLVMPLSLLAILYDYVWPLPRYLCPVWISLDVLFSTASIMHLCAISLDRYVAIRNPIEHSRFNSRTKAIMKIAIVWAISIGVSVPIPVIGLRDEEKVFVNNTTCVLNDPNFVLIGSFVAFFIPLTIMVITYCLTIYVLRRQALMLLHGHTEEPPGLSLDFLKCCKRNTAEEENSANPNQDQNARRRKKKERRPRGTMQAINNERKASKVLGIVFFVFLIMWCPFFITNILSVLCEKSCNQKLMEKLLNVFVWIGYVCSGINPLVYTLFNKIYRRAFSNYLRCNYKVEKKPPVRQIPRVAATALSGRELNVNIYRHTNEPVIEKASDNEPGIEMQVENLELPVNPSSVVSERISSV", "conditions": "agonist; Rickli et al., 2018; cited from earlier work"}, "[5]": {"assay": "Phase 1 SAD and MAD studies, pharmacokinetics"}, "[6]": {"molecular_target": "human GluN1-GluN2C NMDA receptor (Homo sapiens, UniProt Q05586+Q14957)", "sequence (Q14957 20-1233, other chains not shown)": "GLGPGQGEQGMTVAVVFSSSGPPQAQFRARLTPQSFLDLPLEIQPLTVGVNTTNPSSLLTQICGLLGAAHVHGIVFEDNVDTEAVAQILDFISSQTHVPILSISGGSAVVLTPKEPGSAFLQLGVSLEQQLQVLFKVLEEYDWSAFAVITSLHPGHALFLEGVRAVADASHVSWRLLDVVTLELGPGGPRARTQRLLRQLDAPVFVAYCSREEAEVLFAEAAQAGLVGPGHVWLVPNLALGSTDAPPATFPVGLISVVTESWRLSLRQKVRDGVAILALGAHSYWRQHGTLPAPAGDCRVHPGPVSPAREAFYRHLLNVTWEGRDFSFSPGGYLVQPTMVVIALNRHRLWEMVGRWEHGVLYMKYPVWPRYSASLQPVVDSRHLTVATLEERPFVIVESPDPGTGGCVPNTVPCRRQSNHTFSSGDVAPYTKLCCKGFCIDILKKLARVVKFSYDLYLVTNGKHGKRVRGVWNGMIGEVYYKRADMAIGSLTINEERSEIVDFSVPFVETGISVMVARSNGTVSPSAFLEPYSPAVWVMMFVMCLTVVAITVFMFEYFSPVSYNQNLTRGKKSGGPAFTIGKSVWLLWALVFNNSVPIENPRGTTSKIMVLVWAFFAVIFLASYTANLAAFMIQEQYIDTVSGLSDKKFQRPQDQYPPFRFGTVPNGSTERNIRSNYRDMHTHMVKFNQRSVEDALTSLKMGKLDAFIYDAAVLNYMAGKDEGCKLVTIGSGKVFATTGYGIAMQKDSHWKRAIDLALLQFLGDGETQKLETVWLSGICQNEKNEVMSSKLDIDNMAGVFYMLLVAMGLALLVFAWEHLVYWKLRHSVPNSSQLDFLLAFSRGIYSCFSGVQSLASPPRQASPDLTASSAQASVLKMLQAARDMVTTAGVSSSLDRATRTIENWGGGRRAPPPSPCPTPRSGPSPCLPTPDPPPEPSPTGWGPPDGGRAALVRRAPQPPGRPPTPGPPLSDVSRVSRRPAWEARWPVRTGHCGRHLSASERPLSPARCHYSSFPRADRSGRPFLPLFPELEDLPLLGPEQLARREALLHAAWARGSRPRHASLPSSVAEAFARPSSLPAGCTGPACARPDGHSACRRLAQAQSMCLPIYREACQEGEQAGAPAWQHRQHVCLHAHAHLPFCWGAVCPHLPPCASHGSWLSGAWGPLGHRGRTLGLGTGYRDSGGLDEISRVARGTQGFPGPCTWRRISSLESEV", "assay": "Manual patch clamp trapping assay, hGluN1/hGluN2C-CHO cells", "conditions": "test item 10 μM"}, "[7]": {"conditions": "0.04 μM L-Glu + 1000 μM QA + 10 μM DXT"}, "[8]": {"conditions": "0.2 μM L-Glu + 100 μM QA + 10 μM DXT"}, "[9]": {"conditions": "0.2 μM L-Glu + 1000 μM QA + 10 μM DXT"}, "[10]": {"conditions": "1000 μM QA + 10 μg/ml GENT + 10 μM DXT"}, "[11]": {"conditions": "Table 41: 0.04 μM L-Glu + 10 μM DXT"}, "[12]": {"conditions": "Table 43: 0.2 μM L-Glu + 10 μM DXT"}}, "note": "“And” between values parts separate entries of the source, which are not always exact repeats. Equal values may be shown once.", "data": [{"smiles": "CCC(=O)C(C[C@H](C)N(C)C)(c1ccccc1)c1ccccc1", "note": "[Dextromethadone, dextromethadone]", "values": [{"measurement": "α, estimated cooperativity term", "setting": "[1]; operational analysis for allosteric modulators", "result": 0.26}, {"measurement": "L-glutamate CRC HillSlope", "setting": "[1]; with test item 49 nM", "result": 1.2}, {"measurement": "L-glutamate CRC LogEC50", "setting": "[1]; with test item 49 nM", "result": "−7.0"}, {"measurement": "L-glutamate CRC HillSlope", "setting": "[1]; with test item 195 nM", "result": 1.2}, {"measurement": "L-glutamate CRC LogEC50", "setting": "[1]; with test item 195 nM", "result": "−6.9"}, {"measurement": "L-glutamate CRC HillSlope", "setting": "[1]; with test item 781 nM", "result": 1.2}, {"measurement": "L-glutamate CRC LogEC50", "setting": "[1]; with test item 781 nM", "result": "−6.9"}, {"measurement": "L-glutamate CRC HillSlope", "setting": "[1]; with test item 3.1 μM", "result": 1.1}, {"measurement": "L-glutamate CRC LogEC50", "setting": "[1]; with test item 3.1 μM", "result": "−6.9"}, {"measurement": "L-glutamate CRC HillSlope", "setting": "[1]; with test item 12.5 μM", "result": 1.3}, {"measurement": "L-glutamate CRC LogEC50", "setting": "[1]; with test item 12.5 μM", "result": "−6.7"}, {"measurement": "L-glutamate CRC HillSlope", "setting": "[1]; with test item 50 μM", "result": 1.1}, {"measurement": "L-glutamate CRC LogEC50", "setting": "[1]; with test item 50 μM", "result": "−6.4"}, {"measurement": "calcium entry induced by 0.04 μM L-glutamate", "setting": "[2]", "result": "significantly reduced"}, {"measurement": "calcium entry induced by 0.2 μM L-glutamate", "setting": "[2]", "result": "significantly reduced"}, {"measurement": "calcium entry induced by 10 μM L-glutamate", "setting": "[2]", "result": "significantly reduced"}, {"measurement": "calcium response (mean±SEM)", "setting": "[3]; 0.04 μM L-Glu + 10 μM DXT", "result": "0.2 ± 0.4"}, {"measurement": "calcium response (mean±SEM)", "setting": "[3]; [7]", "result": "13 ± 1.0"}, {"measurement": "calcium response (mean±SEM)", "setting": "[3]; 0.2 μM L-Glu + 10 μM DXT", "result": "8.0 ± 0.5"}, {"measurement": "calcium response (mean±SEM)", "setting": "[3]; [8]", "result": "9.9 ± 0.8"}, {"measurement": "calcium response (mean±SEM)", "setting": "[3]; [9]", "result": "13 ± 1.0"}, {"measurement": "% effect on calcium entry, 100 QA + 10 DXT", "setting": "[3]; 100 μM QA + 10 μM DXT", "result": "−1.0 ± 0.8", "unit": "%"}, {"measurement": "calcium response (mean±SEM)", "setting": "[3]; 1000 μM QA + 10 μM DXT", "result": "12 ± 0.7"}, {"measurement": "% effect on calcium entry, 1000 QA + 10 DXT", "setting": "[3]; 1000 μM QA + 10 μM DXT", "result": "12 ± 0.7", "unit": "%"}, {"measurement": "calcium response (mean±SEM)", "setting": "[3]; [10]", "result": "21 ± 0.9"}, {"measurement": "calcium response (mean±SEM)", "setting": "[3]; [11]", "result": "0.2 ± 0.4"}, {"measurement": "calcium response (mean±SEM)", "setting": "[3]; [12]", "result": "8.0 ± 0.5"}, {"measurement": "calcium response (mean±SEM)", "setting": "[4]; 0.04 μM L-Glu + 10 μM DXT", "result": "3.5 ± 0.2"}, {"measurement": "calcium response (mean±SEM)", "setting": "[4]; 0.04 μM L-Glu + 100 μM QA + 10 μM DXT", "result": "7.1 ± 0.4"}, {"measurement": "calcium response (mean±SEM)", "setting": "[4]; [7]", "result": "33 ± 1.6"}, {"measurement": "calcium response (mean±SEM)", "setting": "[4]; 0.2 μM L-Glu + 10 μM DXT", "result": "71 ± 2.3"}, {"measurement": "calcium response (mean±SEM)", "setting": "[4]; [8]", "result": "69 ± 1.4"}, {"measurement": "calcium response (mean±SEM)", "setting": "[4]; [9]", "result": "43 ± 1.1"}, {"measurement": "% effect on calcium entry, 100 QA + 10 DXT", "setting": "[4]; 100 μM QA + 10 μM DXT", "result": "−2.4 ± 0.2", "unit": "%"}, {"measurement": "calcium response (mean±SEM)", "setting": "[4]; 1000 μM QA + 10 μM DXT", "result": "32 ± 0.9"}, {"measurement": "% effect on calcium entry, 1000 QA + 10 DXT", "setting": "[4]; 1000 μM QA + 10 μM DXT", "result": "32 ± 0.9", "unit": "%"}, {"measurement": "calcium response (mean±SEM)", "setting": "[4]; [10]", "result": "36 ± 0.8"}, {"measurement": "calcium response (mean±SEM)", "setting": "[4]; [11]", "result": "3.5 ± 0.2"}, {"measurement": "calcium response (mean±SEM)", "setting": "[4]; [12]", "result": "71 ± 2.3"}, {"measurement": "residual current, % of pre-application level", "setting": "GluN1/GluN2D receptor; 1 μM L-glutamate, −80 mV, control cells 102.5±[…]", "result": "62.5±4.1", "unit": "%"}, {"measurement": "10 μM or 1 μM L-glutamate elicited current", "setting": "GluN1/GluN2D receptor; −30 mV to −80 mV", "result": "significantly reduced"}, {"measurement": "Ki", "setting": "5-HT2A receptor", "result": 520, "unit": "nM"}, {"measurement": "Ki", "setting": "5-HT2C receptor", "result": 1900, "unit": "nM"}, {"measurement": "conversion of dextromethadone to levomethadone in vivo", "setting": "[5]; SAD and MAD subjects", "result": "No detectable conversion"}, {"measurement": "pharmacokinetic linearity", "setting": "[5]; SAD and MAD, racially diversified subjects", "result": "linear pharmacokinetics with dose proportionality"}, {"measurement": "Block trapped (BT), trapping", "setting": "[6]", "result": "85.9% and 85.9%±1.9%"}, {"measurement": "Block (B) of 10/10 μM L-glutamate/glycine-evoked currents", "setting": "[6]; listed as dextromethadone", "result": "83.8%±1.2% and 83.8%"}, {"measurement": "Block trapped (BT), trapping", "setting": "[6]; listed as dextromethadone", "result": "85.9% and 85.9%±1.9%"}, {"measurement": "Residual block (BR)", "setting": "[6]; listed as dextromethadone", "result": "71.8%±1.1% and 71.8%"}]}]}
